Experimental data as given in patent US8912146B2, “Derivatives of APF and methods of use” (University of Maryland, Baltimore, priority 2008, dated 2014).
Entries after “also recorded” stand apart in the source; their conditions may differ.

How the values were obtained:
Format in all cases: cell-based, human
[1] = test system: bladder epithelial cells from IC/PBS patients; assay: Stimulation of IC/PBS cell proliferation (3H-thymidine incorporation)
Experimental: (§1) IC/PBS cells were incubated with varying concentrations of two derivatives shown to inhibit APF activity in normal bladder cells—GalGalNAc-TV(D-pipecolic acid) AAVVVA (SEQ ID NO:14) and GalGalNAc-TV (D-proline)AAVVVA (SEQ ID NO:27). Cell proliferation was determined by ^3H-thymidine incorporation; gene expression by quantitative RT-PCR; specific protein expression by Western blot analysis; tight junction formation by confocal immunofluorescence microscopy; and paracellular permeability by ^14C-mannitol and ^3H-inulin flux between confluent cells on Transwell plates. Significance of the difference in mean values between groups was determined by an analysis of variance for each assay.
as §1, with “cells -GalGalNAc-TV-(D-pipecolic acid)-AAVVVA” for “cells—GalGalNAc-TV(D-pipecolic acid) AAVVVA”, “NO:7)” for “NO:14)”, “GalGalNAc-TV-(D-proline)-AAVVVA” for “GalGalNAc-TV (D-proline)AAVVVA”, “RT-PCR;” for “RT-PCR; specific protein expression by Western blot analysis;”
IC/PBS cells produce APF and as a result have a profound decrease in cell proliferation. […]
Cystoscopy was performed under general anesthesia, and 4-mm^2 pieces of transitional epithelium with submucosal bladder tissue were obtained from IC/PBS patients and controls for the growth of primary bladder epithelial cells, as previously described (Keay et al., 2000; Keay et al., 2001; Keay et al., 2004; Keay et al., 2003). […]
Cell proliferation was measured by ^3H-thymidine incorporation into explanted normal human bladder epithelial cells, as previously described (Keay et al., 2000; Keay et al., 2001; Keay et al., 2004; Keay et al., 2003; Saitoh et al., 2001). […]

[2] = test system: ZO-1, occludin, claudin 1, 4, 8, 12 mRNA in IC/PBS cells; assay: qRT-PCR of tight junction protein mRNA in IC/PBS cells; conditions: 16 or 30 day treatment
Experimental: Total RNA was extracted from IC/PBS and normal control epithelial cell explants using the RNEasy Plus Mini Kit (Qiagen) according to the manufacturer's protocol. Quantitative real time RT-PCR for tight junction gene expression was performed using Quantitect Primers (Qiagen), SYBR Green RT-PCR kit reagents (Qiagen), and a Roche 480 Light-Cycler. Samples were tested in triplicate runs, and specific mRNA levels quantified and compared to mRNA levels for β-actin using LightCycler 480 real-time PCR analysis software (version 1.5).
For the permeability assay, the percentage of total counts in the basal medium was determined in four experiments (using different IC/PBS cell donors), and expressed as mean±standard deviation. Crossover point analysis was performed for qRT-PCR data, and expression of each gene was quantified relative to β-actin; this value was expressed as mean±standard error of the mean for duplicate runs performed on two separate occasions. ^3H-thymidine incorporation was determined in triplicate on two separate occasions, and the CPM expressed as mean±standard deviation.

[3] = test system: tight junction proteins in IC/PBS cells; assay: Immunofluorescence confocal microscopy of tight junction proteins in IC/PBS cells; conditions: IC/PBS cell explants, 9 days
Experimental: For immunofluorescence, cells were fixed using ethanol/acetone (1:1) for 15 minutes at room temperature, washed 3 times with PBS and incubated with fluorescein isothiocyanate (FITC) labeled mouse monoclonal anti-ZO-1 (5 μg/ml); or unlabeled mouse monoclonal anti-occludin (5 μg/ml) or anti-claudin 4 (3 μg/ml); or unlabeled rabbit polyclonal anti-claudin 1 (3 μg/ml), anti-claudin 8 (8 μg/ml), or anti-claudin 12 (5 μg/ml from Zymed, South San Francisco, Calif.) diluted in PBS for 2 hours at 37 C. Cells incubated with unlabeled mouse monoclonal primary antibodies were then washed 3 times with PBS and further incubated with FITC-labeled secondary goat anti-mouse IgG antibody (Zymed) diluted in PBS, while cells incubated with unlabeled rabbit polyclonal primary antibodies were washed and further incubated for 2 hours at 37 C with goat anti-rabbit IgG (Zymed) diluted in PBS. Following an additional 5 washes with PBS, the cells were examined using an LSM510 confocal laser scanning microscope (Carl Zeiss, Oberkochen, Germany). Negative controls for the method included cells incubated without primary and secondary antibodies as well as cells incubated with secondary antibody alone.

IC/PBS cell monolayers = assay: Paracellular permeability (14C-mannitol and 3H-inulin flux, Transwell) of IC/PBS cell monolayers; conditions: 16 or 30 days treatment
Experimental: Flux assays were performed using 12-mm Transwell culture plates (Corning Incorporated, Corning, N.Y.), as previously described (Keay et al., 2000). Cells were plated at 4×10^5 cells/cm^2 on the insert and grown in DMEM-F12 medium containing 10% heat-inactivated FBS, 1% antibiotic solution, 1% L-glutamine, 0.25 units/ml insulin (all from Sigma, St. Louis, Mo.), and 5 ng/ml hEGF (R & D Systems, Minneapolis, Minn.) to establish tight monolayers. On day 2, the medium was changed to MEM (GIBCO/Invitrogen) containing 1% antibiotic/antimycotic solution and 1% L-glutamine (Sigma).
Two different membrane impermeable molecules, [14C]-mannitol (molecular weight: 184 Daltons) and [^3H]-inulin (molecular weight: 5,200 Daltons), served as paracellular tracers. […] Flux assays were performed at 37° C.; basal medium was collected at 0.5-6 hrs after addition of [^14C]-mannitol or [3H]-inulin, and the amount of radioactivity determined using a Beckman LS 5000 scintillation counter. Results were expressed as percentage of total counts for each tracer.
For the permeability assay, the percentage of total counts in the basal medium was determined in four experiments (using different IC/PBS cell donors), and expressed as mean±standard deviation. […]

In the case of `CC(=O)NC1C(O[C@@H]2OC(CO)[C@H](O)C(O)C2O)[C@@H](O)C(CO)O[C@@H]1OC(C)[C@H](N)C(=O)NC(C(=O)N1CCCC1C(=O)NC(C)C(=O)N[C@@H](C)C(=O)NC(C(=O)N[C@H](C(=O)NC(C(=O)N[C@@H](C)C(=O)O)C(C)C)C(C)C)C(C)C)C(C)C` (stereo in doubt) [Derivative 8, GalGalNAc-TV(D-proline)AAVVVA], the “stimulation of IC/PBS cell proliferation” value ([1]; 1 nM twice weekly, by Day 16 (FIG. 55)) is reported as “significantly (p<0.05) stimulated IC/PBS cell proliferation”, the “stimulation of IC cell proliferation” value ([1]; 0.25 μM of each agent, 9, 16, 23, 30 day treatment (FIG. 41)) is reported as “Optimal stimulation of IC cell proliferation” and the “IC cell proliferation vs untreated controls” value ([1]; 16 and 30 days of treatment (FIG. 48)) is reported as “significantly stimulated”. For the same compound, the “tight junction protein (ZO-1, occludin, claudins) mRNA expression in IC/PBS cells” value (“tight junction protein … in IC/PBS cells” for short) ([2]; listed as D-proline) was “significantly (p<0.05) stimulate mRNA expression”, the “tight junction protein … in IC/PBS cells” value ([2]; listed as D-proline APF) was “stimulation of tight junction protein expression” and the “tight junction protein … in IC/PBS cells” value ([2]; listed as GalGalNAc-TV-(D-proline)-AAVVVA) was “significantly increased”. For the same compound, the “expression of tight junction proteins by immunofluorescence confocal microscopy” value [3] was “increased”, the “paracellular permeability of IC/PBS cells (14C-mannitol, 3H-inulin)” value (IC/PBS cell monolayers) was “significantly decrease permeability” and the “paracellular permeability of IC/PBS cells (14C-mannitol, 3H-inulin)” value (IC/PBS cell monolayers; listed as D-proline APF) was “normalized; also recorded: significantly decreased paracellular permeability”.
